Data published in patent US20240239781A1, “1H-PYRAZOLE DERIVATIVES AS SIGMA LIGANDS” (ACONDICIONAMIENTO TARRASENSE, priority 2021, published 2024).

Legend:
human σ1 receptor = target: T1, human σ1 receptor (Homo sapiens, UniProt Q99720); assay: Human σ1 receptor radioligand assay ([3H](+)-pentazocine, transfected HEK-293 membranes); settings: class scale, read-out: Binding σ-1 Ki
T1 construct: expressed in transfected cells; host or cells: HEK-293
How it was run: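 Compounds were tested at a single 1 or 10 μM concentration (% inhibition) or at five concentrations to give Ki. They competed with 5 nM [3H](+)-pentazocine for transfected HEK-293 membranes (7 μg) in 50 mM Tris-HCl pH 8 at 37° C for 120 minutes. Nonspecific binding was set with 10 μM haloperidol, and a filtration scintillation read-out was used.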

human σ2/TMEM97 receptor = target: T2, human σ2/TMEM97 receptor (Homo sapiens, UniProt Q5BJF2); assay: Binding assay to human σ2/TMEM97 receptor ([3H]-DTG, transfected HEK-293 membranes); settings: class scale, read-out: Binding σ-2 Ki
T2 construct: expressed in transfected cells; host or cells: HEK-293
How it was run: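 Competition against 10 nM [3H]-DTG (Tris-HCl 50 mM, pH 8.0, 25 °C, 120 min) using 15 μg transfected HEK-293 membrane protein, with 10 μM haloperidol defining NSB. Bound radioactivity counted after filtration; results as single-point % inhibition (1 or 10 μM) or five-point Ki.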

T1 sequence (Q99720 whole entry): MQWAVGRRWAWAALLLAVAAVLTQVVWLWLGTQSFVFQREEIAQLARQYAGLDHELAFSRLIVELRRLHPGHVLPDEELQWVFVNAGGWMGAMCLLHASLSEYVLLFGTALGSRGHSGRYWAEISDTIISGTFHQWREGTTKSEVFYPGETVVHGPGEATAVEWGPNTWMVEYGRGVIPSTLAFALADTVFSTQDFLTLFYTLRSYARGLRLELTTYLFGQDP
T2 sequence (Q5BJF2 whole entry): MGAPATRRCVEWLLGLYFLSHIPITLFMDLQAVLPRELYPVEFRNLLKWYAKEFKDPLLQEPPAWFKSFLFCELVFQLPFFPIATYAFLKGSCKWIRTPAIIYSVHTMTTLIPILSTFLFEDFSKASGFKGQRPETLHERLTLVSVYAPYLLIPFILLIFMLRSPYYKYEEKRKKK

| Ki (human σ1 receptor) [nM] | Ki (human σ2/TMEM97 receptor) [nM] | Structure (SMILES) |
| --- | --- | --- |
| 500 to 1000 | < 100 | Cc1cc(-c2nn(C)c(Cl)c2C(=O)N2CCC3(CC2)CC(NCCC(C)(C)C)C3)no1 [Example 174, (5-Chloro-1-methyl-3-(5-methylisoxazol-3-yl)-1H-pyrazol-4-yl)(2-((3,3-dimethylbutyl)amino)-7-azaspiro[3.5]nonan-7-yl)methanone] |
| > 1000 | > 1000 | Cc1cc(-c2nn(C)c(Cl)c2C(=O)N2CCCC(CNCC(C)C)C2)no1 (stereo not shown) [Example 95, (5-Chloro-1-methyl-3-(5-methylisoxazol-3-yl)-1H-pyrazol-4-yl)(3-((isobutylamino)methyl)piperidin-1-yl)methanone] |
| 500 to 1000 | 500 to 1000 | Cc1cc(-c2nn(C)c(Cl)c2CN2CCC(CNCc3ccccc3)C2)no1 (stereo not shown) [Example 44, N-Benzyl-1-(1-((5-chloro-1-methyl-3-(5-methylisoxazol-3-yl)-1H-pyrazol-4-yl)methyl)pyrrolidin-3-yl)methanamine] |
| 100 to 500 | 100 to 500 | Cc1cccc(-c2nn(C)c(Cl)c2CN2CC3(CCN(CCC(C)(C)C)CC3)CC2=O)n1 [Example 228, 2-((5-Chloro-1-methyl-3-(6-methylpyridin-2-yl)-1H-pyrazol-4-yl)methyl)-8-(3,3-dimethylbutyl)-2,8-diazaspiro[4.5]decan-3-one] |
| < 100 | < 100 | Cc1cc(-c2nn(C)c(Cl)c2CN2CCC3(C2)CN(CCC(C)(C)C)C3)no1 [Example 52, 3-(5-Chloro-4-((2-(3,3-dimethylbutyl)-2,6-diazaspiro[3.4]octan-6-yl)methyl)-1-methyl-1H-pyrazol-3-yl)-5-methylisoxazole] |
| 100 to 500 | 100 to 500 | Cc1cc(-c2nn(C)c(Cl)c2CN2CCCC[C@@H](NCCC(C)C)C2)no1 [Example 10, (R)-1-((5-Chloro-1-methyl-3-(5-methylisoxazol-3-yl)-1H-pyrazol-4-yl)methyl)-N-isopentylazepan-3-amine] |
| < 100 | < 100 | CCn1nc(-c2cccc(C(F)(F)F)n2)c(C(=O)NC2CCN(CCC(C)(C)C)CC2)c1Cl [Example 161, 5-Chloro-N-(1-(3,3-dimethylbutyl)piperidin-4-yl)-1-ethyl-3-(6-(trifluoromethyl)pyridin-2-yl)-1H-pyrazole-4-carboxamide] |
| 100 to 500 | < 100 | Cc1cccc(-c2nn(C)c(Cl)c2C(=O)NC2CCN(CCC(C)(C)C)CC2)n1 [Example 168, 5-Chloro-N-(1-(3,3-dimethylbutyl)piperidin-4-yl)-1-methyl-3-(6-methylpyridin-2-yl)-1H-pyrazole-4-carboxamide] |
| < 100 | < 100 | CCn1nc(-c2cc(C)on2)c(C(=O)Nc2ccc3c(c2)CCN(CCC(C)(C)C)C3)c1Cl [Example 204, 5-Chloro-N-(2-(3,3-dimethylbutyl)-1,2,3,4-tetrahydroisoquinolin-6-yl)-1-ethyl-3-(5-methylisoxazol-3-yl)-1H-pyrazole-4-carboxamide] |
| 100 to 500 | > 1000 | Cc1cc(-c2nn(C)c(Cl)c2CN2CCC(CNCCC(C)(C)C)C2)no1 (stereo not shown) [Example 1, N-((1-((5-Chloro-1-methyl-3-(5-methylisoxazol-3-yl)-1H-pyrazol-4-yl)methyl)pyrrolidin-3-yl)methyl)-3,3-dimethylbutan-1-amine] |
| 500 to 1000 | 500 to 1000 | CCn1nc(-c2cc(C)on2)c(C(=O)NC2CCCCN(CCC(C)(C)C)C2)c1Cl (stereo not shown) [Example 206, 5-Chloro-N-(1-(3,3-dimethylbutyl)azepan-3-yl)-1-ethyl-3-(5-methylisoxazol-3-yl)-1H-pyrazole-4-carboxamide] |
| > 1000 | 100 to 500 | Cn1nc(-c2cccc(O)n2)c(C(=O)N2CCC3(CCN(CCC(C)(C)C)CC3)CC2)c1Cl [Example 124, (5-Chloro-3-(6-hydroxypyridin-2-yl)-1-methyl-1H-pyrazol-4-yl)(9-(3,3-dimethylbutyl)-3,9-diazaspiro[5.5]undecan-3-yl)methanone] |
| 100 to 500 | 100 to 500 | Cc1cc(-c2nn(C)c(Cl)c2CN2CCC(CNCc3ccccc3)CC2)no1 [Example 56, N-Benzyl-1-(1-((5-chloro-1-methyl-3-(5-methylisoxazol-3-yl)-1H-pyrazol-4-yl)methyl)piperidin-4-yl)methanamine] |
| 500 to 1000 | < 100 | CCn1cc(-c2nn(C)c(Cl)c2C(=O)NC2CCC3(CC2)CCN(CCC(C)(C)C)CC3)cn1 [Example 146, 5-Chloro-N-(3-(3,3-dimethylbutyl)-3-azaspiro[5.5]undecan-9-yl)-1′-ethyl-1-methyl-1H,1′H-[3,4′-bipyrazole]-4-carboxamide] |
| 100 to 500 | < 100 | CCCn1nc(-c2cc(C)on2)c(C(=O)N2CC3(CCN(CCC(C)(C)C)CC3)C2)c1Cl [Example 185, (5-Chloro-3-(5-methylisoxazol-3-yl)-1-propyl-1H-pyrazol-4-yl)(7-(3,3-dimethylbutyl)-2,7-diazaspiro[3.5]nonan-2-yl)methanone] |
| < 100 | < 100 | CCn1nc(-c2cccc(C)n2)c(C(=O)NC2CCC3(CC2)CCN(CCC(C)(C)C)CC3)c1Cl [Example 151, 5-Chloro-N-(3-(3,3-dimethylbutyl)-3-azaspiro[5.5]undecan-9-yl)-1-ethyl-3-(6-methylpyridin-2-yl)-1H-pyrazole-4-carboxamide] |
| 500 to 1000 | < 100 | Cc1cc(-c2nn(C)c(Cl)c2C(=O)N2CCCC(CNCCC(C)(C)C)C2)no1 (stereo not shown) [Example 83, (5-Chloro-1-methyl-3-(5-methylisoxazol-3-yl)-1H-pyrazol-4-yl)(3-(((3,3-dimethylbutyl)amino)methyl)piperidin-1-yl)methanone] |

Second part, the compound before the results:

| Structure (SMILES) | Ki (human σ1 receptor) [nM] | Ki (human σ2/TMEM97 receptor) [nM] |
| --- | --- | --- |
| Cc1cc(-c2nn(C)c(Cl)c2CN2CCCCC(NCCc3ccccc3)C2)no1 (stereo not shown) [Example 3, 1-((5-Chloro-1-methyl-3-(5-methylisoxazol-3-yl)-1H-pyrazol-4-yl)methyl)-N-phenethylazepan-3-amine] | 500 to 1000 | > 1000 |
| CCn1nc(-c2cccc(C(F)(F)F)n2)c(C(=O)N2CCC3(CCN(CCC(C)(C)C)CC3)CC2)c1Cl [Example 199, (5-Chloro-1-ethyl-3-(6-(trifluoromethyl)pyridin-2-yl)-1H-pyrazol-4-yl)(9-(3,3-dimethylbutyl)-3,9-diazaspiro[5.5]undecan-3-yl)methanone] | 100 to 500 | < 100 |
| Cc1cc(-c2nn(C)c(Cl)c2C(=O)N2CC[C@]3(C2)C[C@H](NCCC(C)(C)C)C3)no1 [Example 169, (5-Chloro-1-methyl-3-(5-methylisoxazol-3-yl)-1H-pyrazol-4-yl)((2s,4r)-2-((3,3-dimethylbutyl)amino)-6-azaspiro[3.4]octan-6-yl)methanone] | > 1000 | < 100 |
| Cc1cc(-c2nn(C)c(Cl)c2CN2CCCCC(N(C)CCN3CCCCC3)C2)no1 (stereo not shown) [Example 82, 1-((5-Chloro-1-methyl-3-(5-methylisoxazol-3-yl)-1H-pyrazol-4-yl)methyl)-N-methyl-N-(2-(piperidin-1-yl)ethyl)azepan-3-amine] | 500 to 1000 | 100 to 500 |
| Cc1cc(-c2nn(C)c(Cl)c2CN2CCC(CNCCC(C)C)C2)no1 (stereo not shown) [Example 29, N-((1-((5-Chloro-1-methyl-3-(5-methylisoxazol-3-yl)-1H-pyrazol-4-yl)methyl)pyrrolidin-3-yl)methyl)-3-methylbutan-1-amine] | 500 to 1000 | 100 to 500 |
| Cc1cc(-c2nn(C)c(Cl)c2C(=O)N2CCCC(CN(C)CC(C)C)C2)no1 (stereo not shown) [Example 122, (5-Chloro-1-methyl-3-(5-methylisoxazol-3-yl)-1H-pyrazol-4-yl)(3-((isobutyl(methyl)amino)methyl)piperidin-1-yl)methanone] | > 1000 | > 1000 |
| Cc1cc(-c2nn(C)c(Cl)c2C(=O)N2CCC3(CCN(CCC(C)(C)C)CC3)C2)no1 [Example 94, (5-Chloro-1-methyl-3-(5-methylisoxazol-3-yl)-1H-pyrazol-4-yl)(8-(3,3-dimethylbutyl)-2,8-diazaspiro[4.5]decan-2-yl)methanone] | > 1000 | 100 to 500 |
| Cc1cc(-c2nn(C)c(Cl)c2C(=O)N2CCC3(CCN(Cc4ccccc4)CC3)CC2)no1 [Example 175, (9-Benzyl-3,9-diazaspiro[5.5]undecan-3-yl)(5-chloro-1-methyl-3-(5-methylisoxazol-3-yl)-1H-pyrazol-4-yl)methanone] | 500 to 1000 | < 100 |
| Cc1cc(-c2nn(C)c(Cl)c2CN2CCC(NCCC(C)(C)C)C2)no1 (stereo not shown) [Example 13, 1-((5-Chloro-1-methyl-3-(5-methylisoxazol-3-yl)-1H-pyrazol-4-yl)methyl)-N-(3,3-dimethylbutyl)pyrrolidin-3-amine] | 100 to 500 | 100 to 500 |
| CC(C)CCNC1CCCCN(Cc2c(-c3nccn3C)nn(C)c2Cl)C1 (stereo not shown) [Example 32, 1-((5-Chloro-1-methyl-3-(1-methyl-1H-imidazol-2-yl)-1H-pyrazol-4-yl)methyl)-N-isopentylazepan-3-amine] | > 1000 | 100 to 500 |
| Cc1cc(-c2nn(C)c(Cl)c2CN2CCC[C@@H](NCCC(C)C)C2)no1 [Example 5, (R)-1-((5-Chloro-1-methyl-3-(5-methylisoxazol-3-yl)-1H-pyrazol-4-yl)methyl)-N-isopentylpiperidin-3-amine] | 500 to 1000 | 100 to 500 |
| Cc1cc(-c2nn(C)c(Cl)c2C(=O)N2CCC3(CN(CCC(C)(C)C)C3)C2)no1 [Example 105, (5-Chloro-1-methyl-3-(5-methylisoxazol-3-yl)-1H-pyrazol-4-yl)(2-(3,3-dimethylbutyl)-2,6-diazaspiro[3.4]octan-6-yl)methanone] | > 1000 | 100 to 500 |
